Data reported in patent publication US8287845B2, “Hair-binding peptides” (E I du Pont de Nemours and Company, priority 2008, dated 2012).

Conditions: biotinylated peptide in TBST with 1 mg/mL BSA, 1 hour at room temperature, streptavidin-HRP/TMB, A450; MB50 calculated from Scatchard plots
Procedure: The MB50 provides an indication of the strength of the binding interaction or affinity of the components of the complex.
Then, the streptavidin-horseradish peroxidase (HRP) conjugate (Pierce Chemical Co., Rockford, Ill.) was added to each well (1.0 μg per well), and incubated for 1 h at room temperature, followed by 6 times of washes with TBST. […] The results were plotted as A450 versus the concentration of peptide using GraphPad Prism 4.0 (GraphPad Software, Inc., San Diego, Calif.).

SLRRRWTTFGKILRRWTLPTAMLLVMM-K(biotin)-NH2 [CXH-W4]
MB50: 21 nM

RRSMSLRMLTRGIKWSAMAYLASRWIL-K(biotin)-NH2 [CXH-W3]
MB50: 72 nM
